Measured values published in patent US11040106B2, “Conjugates of kinase inhibitors and cyanine dyes” (priority 2018, dated 2021).
“Also recorded” adds a separate entry of the source.

How the values were obtained:
HSA [1] = molecular target: T1, HSA (Homo sapiens, UniProt P02768); assay: Covalent binding / reaction of cyanines with HSA (LC/MS, ESI MS, NIR-fluorescent gel); conditions: HEPES buffer pH 7.4, 37° C.
Procedure: FIGS. 33A to 33D show kinetics of a, 1, c, 4, d, 5; e, 6 in 1 M HEPES buffer pH 7.4. […] The kinetics was examined on C, 18 column using Agilent 1200 series LC/MS at 600 nm.
FIGS. 34A and 34B show mass spectra of a, free HSA and b, 1 bound to HSA. HSA: 1 (2.5:1); buffer 1 M HEPES.
In a control experiment, human serum albumin (HSA) was reacted with 2.5 equivalents of 1-Cl at 37° C. in 1 M HEPES buffer. This 1-Cl:albumin molar ratio was selected because it is approximately that used in cell culture experiments to probe uptake of this dye.
To test this assertion the experimental design was modified in the following way.

[2] = tested on: MDA-MB-231 “triple negative” breast cancer cells; assay: Cytotoxicity (cell viability) on MDA-MB-231 cells; assay type: cell-based; conditions: MDA-MB-231 (breast cancer cells)
U87-MG cells [3] = assay: Cytotoxicity (cell viability) on U87-MG cells; assay type: cell-based; conditions: for cytotoxicity compared with parent dye, parent kinase inhibitor (and their mixture): U87-MG cells (glioblastoma)
[4] = tested on: U87-MG glioblastoma cells; assay: Organelle localization of the fluors (confocal imaging); assay type: cell-based, human; conditions: 37° C., DMEM/F12 with 10% FBS pH 7.4; for localization after time (h) 0.5: 0.5 h; for localization after time (h) 24: 24 h
HEPG2 cells [5] = assay: Cytotoxicity (cell viability, MTT assay) on HEPG2 cells; assay type: cell-based; conditions: HEPG2 cells (liver cancer)
Procedure: Approximately 5000 HEPG2 cells/well were seeded on 96 well plate containing 10% fetal bovine serum. Cells were allowed to adhere overnight before test compounds were added. Stock solutions of 1a (0.02 M in DMSO) were diluted with protein-free medium (PFHM-II) to make desired final concentrations varying from 0.01 to 80 μM. The cells were incubated with the desired concentration for 48 h. The cell viabilities were calculated using MTT assay. Briefly, 20 μL of 3-(4,5-dimethylthiazol-2-yl)-2,5-diphenyltetrazolium bromide MTT (5 mg/mL, in Hank's balanced salt solution) were added and the cells were incubated for an additional 3.5 h. The medium was then removed, and […] of DMSO was added to dissolve the formazan crystal formed. The optical density of each well (at 570 nm) was measured with a BioTek Synergy 4 Microplate Reader. The viability of each cell line in response to the treatment with tested compounds was calculated as: % dead cells=100−(OD treated/OD control)×100.

HEPG2 cells [6] = assay: 1a in HEPG2 cells: morphology change and co-localization in organelles; assay type: cell-based
Description: FIG. 5A visualizes some of the data from FIGS. 4A and 4B (that on HEPG2 cells).
Localization of compounds in mitochondria tends to give more pronounced cytotoxicity effects than accumulation in most organelles.

[7] = tested on: U87-MG (Glioblastoma) cells as compared to HUVEC (normal cells); assay: Uptake by U87-MG cells as compared to HUVEC; assay type: cell-based, human
HSA [8] = molecular target: T1, HSA; assay: Covalent binding / reaction of cyanines with HSA (LC/MS, ESI MS, NIR-fluorescent gel)
Solubility in water = assay type: physicochemical
Procedure: 1-NMe2 is water soluble up until 1000 μM whereas 1-CH2 precipitates at 100 μM.

U87-MG cells [9] = assay: Cytotoxicity of ICG, MHI-148 and QCy, 72 h in the dark, AlamarBlue; assay type: cell-based, human
Description: Cytotoxicity of QCy was studied using U87-MG cells (a glioblastoma multiforme line).

Photophysical properties = assay type: physicochemical; conditions: 10 mM PBS buffer pH 7.4
U87-MG cells [10] = assay: Uptake and colocalization of 1-Cl and 1-HSA (confocal); assay type: cell-based, human
Procedure: Colocalization with trackers for mitochondria, lysosome, ER and Golgi are featured. Images were taken using Zeiss confocal microscope at 60×/1.2 water immerse objective after 30 mins of incubation.
FIG. 43 are data from a set of experiments nearly identical to those in FIG. […]
Data in FIG. 42 should be compared with literature reports describing import of 1-Cl but in media containing albumin into various cells.

[11] = Photostability under LED irradiation at 780 nm; assay type: physicochemical; conditions: PBS pH 7.4, LED 780 nm
Procedure: Initially, equimolar concentrations (20 μM) were used; QCy was reproducibly and more robust than the other two, but the difference was more than anticipated so the experimental design was suspected.

T1 sequence (P02768 25-609): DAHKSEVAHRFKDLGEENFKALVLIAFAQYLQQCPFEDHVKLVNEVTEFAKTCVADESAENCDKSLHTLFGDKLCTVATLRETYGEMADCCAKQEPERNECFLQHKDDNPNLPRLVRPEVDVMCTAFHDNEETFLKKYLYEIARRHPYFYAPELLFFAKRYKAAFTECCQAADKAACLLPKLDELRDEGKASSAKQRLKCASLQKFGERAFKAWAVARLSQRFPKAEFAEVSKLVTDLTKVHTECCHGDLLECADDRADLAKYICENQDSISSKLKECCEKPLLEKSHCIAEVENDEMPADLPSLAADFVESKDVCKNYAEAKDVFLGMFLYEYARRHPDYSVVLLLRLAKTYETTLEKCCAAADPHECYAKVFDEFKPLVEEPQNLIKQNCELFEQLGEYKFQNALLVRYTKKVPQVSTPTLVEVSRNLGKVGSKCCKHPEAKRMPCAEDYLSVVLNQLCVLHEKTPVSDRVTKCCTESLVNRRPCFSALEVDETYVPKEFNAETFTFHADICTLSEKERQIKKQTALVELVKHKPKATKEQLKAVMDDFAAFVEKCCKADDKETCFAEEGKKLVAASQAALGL

CC1(C)C(/C=C/C2=CC(=C/C=C3/N(CCCCCC(=O)O)c4ccccc4C3(C)C)/CCC2)=[N+](CCCCCC(=O)[O-])c2ccccc21 [Compound 4]
covalent binding / reaction with HSA (HSA [1]): did not bind
covalent binding / reaction with HSA (HSA [1]; listed as 1-H): do not react with HSA

CC1=C(/C=C/C2=[N+](CCCCCC(=O)[O-])c3ccccc3C2(C)C)CCC/C1=C\C=C1\N(CCCCCC(=O)O)c2ccccc2C1(C)C [Compound 5]
covalent binding / reaction with HSA (HSA [1]): did not bind
covalent binding / reaction with HSA (HSA [1]; listed as 1-Me): do not react with HSA

CN(C)C(=O)c1cc2cnc(Nc3ccc(N4CCN(C(=O)CCCCCN5/C(=C/C=C6\CCCC(/C=C/C7=[N+](CCCCCC(=O)[O-])c8ccccc8C7(C)C)=C6Cl)C(C)(C)c6ccccc65)CC4)cn3)nc2n1C1CCCC1 [Compound 1c]
cytotoxicity compared with parent dye, parent kinase inhibitor (and their mixture) [2]: more found to be toxic than individual 1, c or a combination of 1+c; also recorded: significantly more toxic than the parent dye, the parent kinase inhibitor, or a mixture of the dye and kinase inhibitor

CC(Oc1cc(-c2cnn(C3CCN(C(=O)CCCCCN4C(=CC=C5CCCC(C=CC6=[N+](CCCCCC(=O)[O-])c7ccccc7C6(C)C)=C5Cl)C(C)(C)c5ccccc54)CC3)c2)cnc1N)c1c(Cl)ccc(F)c1Cl (stereo not shown) [Compound 1d]
cytotoxicity compared with parent dye, parent kinase inhibitor (and their mixture) [2]: more found to be toxic than individual 1, d or a combination of 1+d; also recorded: significantly more toxic than the parent dye, the parent kinase inhibitor, or a mixture of the dye and kinase inhibitor

CC(=O)c1c(C)c2cnc(Nc3ccc(N4CCN(C(=O)CCCCCN5C(=CC=C6CCCC(C=CC7=[N+](CCCCS(=O)(=O)[O-])c8ccccc8C7(C)C)=C6Cl)C(C)(C)c6ccccc65)CC4)cn3)nc2n(C2CCCC2)c1=O [Compound 3b]
cytotoxicity compared with parent dye, parent kinase inhibitor (and their mixture) (U87-MG cells [3]): more toxic than b or 3

Indocyanine green [ICG]
localization after time (h) 0.5 [4]: golgi and ER
localization after time (h) 24 [4]: golgi and lysosome

CC1(C)C(/C=C/C2=C(c3ccccc3)C(=C/C=C3/N(CCCCCC(=O)O)c4ccccc4C3(C)C)/CCC2)=[N+](CCCCCC(=O)[O-])c2ccccc21 [Compound 6]
covalent binding / reaction with HSA (HSA [1]; listed as 1-Ph): do not react with HSA

Cc1nc(Nc2ncc(C(=O)Nc3c(C)cccc3Cl)s2)cc(N2CCN(CCOC(=O)CCCCCN3C(=CC=C4CCCC(C=CC5=[N+](CCCCCC(=O)O)c6ccccc6C5(C)C)=C4Cl)C(C)(C)c4ccccc43)CC2)n1 [Compound 1a]
cytotoxicity compared with parent dye, parent kinase inhibitor (and their mixture) (HEPG2 cells [5]): more found to be toxic than individual 1, a or a combination of 1+a; also recorded: significantly more toxic than the parent dye, the parent kinase inhibitor, or a mixture of the dye and kinase inhibitor
organelle localization (HEPG2 cells [6]; HEPG2): localizes preferentially in mitochondria
influence on cell morphology compared with dasatinib a (HEPG2 cells [6]; HEPG2, 24 and 48 h): much stronger influence on the cell morphology
cytotoxicity compared with parent dye, parent kinase inhibitor (and their mixture) (U87-MG cells [3]): more found to be toxic than individual 1, a or a combination of 1+a; also recorded: significantly more toxic than the parent dye, the parent kinase inhibitor, or a mixture of the dye and kinase inhibitor
cytotoxicity compared with ICG-COOH conjugate (U87-MG cells [3]; U87-MG, 24 and 48 h): more toxic than ICG-COOH-a
uptake by U87-MG cells compared to HUVEC [7]: localizes more in U87-MG cells than HUVEC cells

CC1(C)C(/C=C/C2=C(Cl)C(=C/C=C3\N(CCCCCC(=O)O)c4ccccc4C3(C)C)/CCC2)=[N+](CCCCCC(=O)O)c2ccccc21 [Compound 1]
covalent binding / reaction with HSA (HSA [1]): showed an increase in peak with HSA; also recorded: HSA is bound to 1; also recorded: binds to HSA at cysteine 34 position
covalent binding / reaction with HSA (HSA [1]; listed as 1-Cl): 1:1 covalent adduct and does combine with HSA
localization after time (h) 0.5 [4]: mitochondria
localization after time (h) 24 [4]: mitochondria and lysosome
binding to thiol-blocked HSA (TCEP, then 6-maleimide hexanoic acid) (HSA [8]; 15 μM HSA, 15 μM dye): did not bind to 1-Cl
consumption in reaction with HSA (HSA [8]; 0.5 mM HSA, 0.2 mM 1-Cl, 1 M HEPES pH 7.4, 37° C.): nearly all the 1-Cl is consumed after 72 h
concentration at which it precipitates (Solubility in water): 100 µM
IC50 (U87-MG cells [9]): 19.1 ± 1.01 µM
brightness (εmax × Φ) (Photophysical properties): 3689
Δλ (Stokes' shift) (Photophysical properties): 24 nm
εmax (Photophysical properties): 149940 cm^−1M^−1
λabs (Photophysical properties): 775 nm
λem (Photophysical properties): 799 nm
relative brightness (Photophysical properties; relative to ICG): 1.90
Φ (fluorescence quantum yield) (Photophysical properties; standard A (Φ = 0.13 in DMSO)): 0.025
organelle colocalization after uptake (U87-MG cells [10]; 20 μM, serum free media, 30 mins, listed as 1-Cl): localized in the mitochondria; also recorded: Most colocalization is seen with the mitochondria
organelle localization after uptake (U87-MG cells [10]; media containing albumin): fluorescence was observed mostly in the mitochondria
photostability (in words) [11]: the least stable
